This is an account of results in ChEMBL document CHEMBL1201862, “PubChem BioAssay data set” (2004).

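Following 48 hours of exposure in 96-well plates, responses at five concentrations were used to interpolate endpoints linearly. GI50: concentration for 50% inhibition of growth.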 The source made the active and inactive calls. Cut-off read from the data, not from the text of the source: active = GI50 up to about 1.1 µM and inactive = higher. Some results are limits rather than exact numbers.

Holding throughout (assay): NCI tumour cell line growth inhibition, 48 h
The test system of assay [1] is Hs-578T.
The subject of assay [2] is ACHN.
Assay [3] deals with NCI-H522.
The test system of assay [4] is DU-145.
The subject of assay [5] is NCI-H226.
The subject of assay [6] is HCT-15.
Assay [7] concerns MDA-N.
For assay [8], the system named is MOLT-4.
The subject of assay [9] is A498.
Assay [10] relates to HOP-92.
In assay [11] the test system is NCI-H23.
Assay [12] deals with SK-OV-3.
Assay [13] relates to HT-29.
In assay [14] the test system is MDA-MB-231.
Assay [15] relates to UACC-257.
The subject of assay [16] is SF-539.
Assay [17] has as its system OVCAR-3.
In assay [18] the test system is HCT-116.
Assay [19] deals with RXF 393.
Assay [20] deals with OVCAR-5.

For the compound `Cc1cccc2c(=O)c3cccc([C@@H](C)C(=O)O)c3oc12`, the GI50 in assay [1] was > 100 µM (inactive); in assay [2], > 100 µM (inactive); in assay [3], > 100 µM (inactive); in [4], > 100 µM (inactive); in assay [5] it was > 100 µM (inactive); in [6] it was above 100 µM. In addition, the GI50 in [7], in [8], in assay [9], in assay [10], in [11] and in [12] was > 100 µM (inactive) each time. Moreover, the GI50 in assay [13], in [14], in assay [15], in [16], in assay [17] and in assay [18] was > 100 µM (inactive) in each case.

Consider `OCCOCCO[P+]1(OCCOCCO)n2c3ccc2C(c2ccccc2)=C2C=CC(=N2)C(c2ccccc2)=c2ccc(n21)=C(c1ccccc1)C1=NC(=C3c2ccccc2)C=C1`, for which the GI50 in assay [1] is 0.127 µM (active); in assay [2] it was 0.35 µM (active); in assay [3] it was 0.186 µM (active); in assay [4], 0.112 µM (active); in assay [19], 0.548 µM (active); in assay [5] it was 0.162 µM (active). The GI50 in [6] is 1.51 µM; in [7] it was 0.0314 µM (active); in [8] it was 0.0267 µM (active); in [20], 0.525 µM (active); in [9] it was 8.57 µM (inactive); in [11], 0.105 µM (active). Further, the GI50 in assay [12] was 0.0859 µM (active); in assay [13], 0.0845 µM (active); in assay [14], 0.0736 µM (active); in assay [15], 0.0268 µM (active); in assay [16], 0.188 µM (active); in assay [17] it was 0.033 µM (active). The GI50 in [18] was 0.0836 µM (active).

`COC(C/C(=C/CO[Si](C(C)C)(C(C)C)C(C)C)C(=O)N(COCC[Si](C)(C)C)c1ccccc1I)OC`: the GI50 in [1] was 48.2 µM (inactive); in assay [2], 20.6 µM (inactive); in assay [4], > 100 µM (inactive); in assay [5] it was 36 µM (inactive); in assay [6], 41.1 µM; in [7], 37.4 µM (inactive). The GI50 in assay [8] was 16.2 µM (inactive); in assay [20], 32.4 µM (inactive); in assay [9] it was > 100 µM (inactive); in [10], 42 µM (inactive); in assay [11], 17.3 µM (inactive); in assay [12] it was > 100 µM (inactive). Also, the GI50 in assay [13] is 60.3 µM (inactive); in [14], > 100 µM (inactive); in [15] it was 20 µM (inactive); in [17], 17.8 µM (inactive); in [18] it was 13.2 µM (inactive).

Turning to `CC(=O)N1CCOC12N=NC(C)(C)O2` (stereo unspecified), the GI50 is > 100 µM (inactive) in [1]; > 100 µM (inactive) in assay [2]; > 100 µM (inactive) in assay [3]; > 100 µM (inactive) in [4]; above 100 µM in assay [6]; > 100 µM (inactive) in [7]. In addition, the GI50 in [8], in assay [20], in [9], in [10], in assay [11] and in assay [12] was > 100 µM (inactive) throughout. The GI50 in [13], in [14], in assay [15], in assay [16], in assay [17] and in assay [18] was > 100 µM (inactive) in each case.

`CC(=O)O[C@H]1C(=O)[C@@]2(C)[C@H]([C@H](OC(=O)c3ccccc3)[C@]3(O)C[C@H](OC(=O)[C@H](O)[C@@H](NC(=O)C(C)(O)C(C)O)c4ccccc4)C(C)=C1C3(C)C)[C@]1(OC(C)=O)CO[C@@H]1C[C@@H]2O` (stereo partly specified): the GI50 was 0.0964 µM (active) in assay [1]; 14.4 µM (inactive) in assay [2]; 0.107 µM (active) in assay [3]; 0.927 µM (active) in assay [4]; 0.316 µM (active) in assay [19]; 17 µM in assay [6]. Besides, the GI50 was 0.0308 µM (active) in assay [7]; 0.282 µM (active) in [8]; 0.687 µM (active) in [20]; 9.44 µM (inactive) in [9]; 0.44 µM (active) in assay [10]; 0.282 µM (active) in [11]. For the same compound, the GI50 was 0.231 µM (active) in [12]; 0.128 µM (active) in [13]; 0.359 µM (active) in assay [14]; 0.381 µM (active) in [15]; 0.112 µM (active) in assay [16]; 0.172 µM (active) in assay [17]. Also, in assay [18], the GI50 was 0.14 µM (active).

`Cn1c(=O)c2c(nc(-n3nc(-c4ccc(Cl)cc4)cc3N)n2C)n(C)c1=O`: the GI50 is 22.4 µM (inactive) in [1]; > 100 µM (inactive) in [2]; > 100 µM (inactive) in [4]; > 100 µM (inactive) in [19]; 55.2 µM (inactive) in [5]; above 100 µM in assay [6]. The GI50 in assay [7] is > 100 µM (inactive); in [8] it was 11.6 µM (inactive); in assay [20], 79.8 µM (inactive); in assay [9] it was > 100 µM (inactive); in assay [10], > 100 µM (inactive); in assay [11] it was > 100 µM (inactive). Besides, the GI50 in [12] was 18.1 µM (inactive); in assay [13], > 100 µM (inactive); in assay [14], > 100 µM (inactive); in [15] it was > 100 µM (inactive); in [16], 17.3 µM (inactive); in [17], > 100 µM (inactive). Further, the GI50 in assay [18] is 19.1 µM (inactive).

With `CCNC(=S)NNC(=O)C12CC3CC(CC(C3)C1)C2`, the GI50 in assay [1], in [2], in assay [3], in [4], in assay [19] and in [5] was > 100 µM (inactive) throughout. The GI50 is above 100 µM in assay [6]; > 100 µM (inactive) in assay [7]; > 100 µM (inactive) in assay [8]; > 100 µM (inactive) in assay [20]; > 100 µM (inactive) in assay [9]; > 100 µM (inactive) in [11]. In addition, the GI50 in assay [12], in assay [13], in assay [14], in assay [15], in [16] and in assay [17] was > 100 µM (inactive) throughout. Besides, the GI50 in [18] was > 100 µM (inactive).

`Cc1c2c(n(Cc3ccccn3)c1C)NN=C(C#N)S2(=O)=O`: the GI50 was > 100 µM (inactive) in assay [1]; > 100 µM (inactive) in assay [2]; > 100 µM (inactive) in assay [3]; > 100 µM (inactive) in assay [4]; > 100 µM (inactive) in [5]; above 100 µM in assay [6]. The GI50 in [7], in assay [8], in assay [20], in assay [9], in assay [10] and in assay [11] was > 100 µM (inactive) each time. The GI50 in assay [12], in [13], in assay [14], in assay [15], in assay [16] and in assay [17] was > 100 µM (inactive) in each case. The GI50 in [18] is > 100 µM (inactive).

Take `COC(=O)C1(C)C=CC(=O)C2(C)C1C(O)C1OC3CC(c4ccoc4)C(C)=C3C1(C)C2CC(=O)O` (stereo unspecified): the GI50 is > 100 µM (inactive) in assay [1]; > 100 µM (inactive) in assay [2]; > 100 µM (inactive) in [3]; > 100 µM (inactive) in assay [4]; above 100 µM in [6]; > 100 µM (inactive) in assay [7]. Further, the GI50 in [8], in assay [20], in [9], in assay [10], in assay [11] and in assay [12] was > 100 µM (inactive) in each case. Also, the GI50 in assay [14], in assay [15], in assay [16], in assay [17] and in assay [18] was > 100 µM (inactive) in each case.

Take `O=c1[nH]c2c(S)nc(O)nc2n1-c1ccccc1`: the GI50 in assay [1], in [2], in [3], in [4], in [19] and in [5] was > 100 µM (inactive) throughout. For the same compound, the GI50 in assay [6] is above 100 µM; in assay [7], > 100 µM (inactive); in assay [8], > 100 µM (inactive); in assay [20], > 100 µM (inactive); in assay [9], > 100 µM (inactive); in assay [10] it was > 100 µM (inactive). Moreover, the GI50 in assay [11], in [13], in assay [14], in assay [15], in assay [17] and in [18] was > 100 µM (inactive) each time.

Consider `O=C(/C=C/c1cc2ccccc2o1)N1CCN(c2ccccn2)CC1`, for which the GI50 is > 100 µM (inactive) in assay [1]; 28 µM (inactive) in assay [3]; > 100 µM (inactive) in [4]; > 100 µM (inactive) in [19]; 74.6 µM in [6]; > 100 µM (inactive) in [7]. The GI50 in [8] is 19 µM (inactive); in assay [20] it was > 100 µM (inactive); in assay [9] it was > 100 µM (inactive); in assay [10] it was 60.5 µM (inactive); in assay [11], > 100 µM (inactive); in assay [12], > 100 µM (inactive). Also, the GI50 was 68.7 µM (inactive) in [13]; 90.2 µM (inactive) in assay [14]; > 100 µM (inactive) in assay [15]; > 100 µM (inactive) in assay [16]; 62.7 µM (inactive) in assay [17]; 85.3 µM (inactive) in [18].
